System: 991263-137-R1-J2-PDC complex spheroid viability
Experiment: Anticancer human tumor 991263-137-R1-J2-PDC patient-derived colon adenocarcinoma cell line growth inhibition [POLQ]
Settings: for IC50: curve of first compound; for viability, T/C: stronger effect = lower value
Procedure: Multicellular complex tumor spheroid response to Polymerase (POL) inhibitors (novobiocin, ART-558, RP6685) in combination with a variety of drugs and investigational agents in selected tumor cell lines
The POL inhibitors (novobiocin, ART-558, and RP6685) were evaluated both individually and in combination with standard of care and investigational anticancer small molecules within a complex spheroid model of solid tumors. . Complex spheroids include a stromal component modeled by human endothelial cells (HUVEC) and fibroblasts modeled by human mesenchymal stem cells (MSCs). The concentration ranges selected for each drug and investigational agent were based upon clinically achievable concentrations if the clinical Cmax of the agent was known.
Compounds. The drugs and investigational agents: novobiocin (NSC847541), ART-558 (NSC835418), RP-6685 (NSC848927), peposertib (NSC802822), ceralasertib (NSC780249), elimusertib (NSC800525), camonsertib (NSC841442), AZD-1390 (NSC803789), olaparib (NSC753686), talazoparib (NSC767125), rucaparib (NSC756644), sotorasib (NSC818433), MRTX-1133 (NSC836407), SN-38 (NSC673596), topotecan (NSC609699), epotoside (NSC141540), doxorubicin (NSC123127), gemcitabine (NSC613327), 5-fluorouracil (NSC19893), paclitaxel (NSC125973), vemurafenib (NSC761431), MSA-2 (NSC828583), SN-011 (NSC837082), adavosertib (NSC754352), prexasertib (NSC758257), carboplatin (NSC241240) and oxaliplatin (NSC266046), were obtained from the National Cancer Institute (NCI) Developmental Therapeutics Program Chemical Repository (21). The FDA-approved anticancer drug set is available from the Developmental Therapeutics Program at https://dtp.cancer.gov/organization/dscb/obtaining/. […] The stock solutions were prepared in dimethyl sulfoxide (DMSO, Sigma-Aldrich, St. Louis, MO, cat. D2650), except for the platinum compounds which were prepared in saline (Quality Biological, Gaithersburg, MD, cat. 114-055-101), at 800-fold the tested concentration and stored at -70 degrees C prior to their use. All drugs and investigational agents were tested over a range starting from a high concentration at or near the clinical Cmax and decreasing in half-log increments. If the clinical Cmax for an agent had not been determined, the highest concentration tested was 10 microM, except for SN-38, which was tested at a high concentration of 1 microM.
Cell Culture. All cells were maintained in an incubator at 37 degrees C and 5% CO2 with 95% humidity. The PDC lines were cultured according to standard operating procedures established by the NCI PDMR (https://pdmr.cancer.gov). Table 3 of the manuscript, lists the cell lines along with the number of the three cell types plated to form the mct-spheroids and media for tumor cell growth. After thawing, all PDC lines, except 997537-175-T-J1-PDC and 415267-285-R-J2-PDC, were cultured in Matrigel-coated flasks prepared with a working solution of 1X Ham's F-12 nutrient mix, without supplementation (Thermo Fisher Scientific, cat. 11765054), 100 U/mL penicillin-streptomycin (Thermo Fisher Scientific, cat. 15140122), and 2.5% Matrigel (Corning Inc., Corning, NY, cat. 354248) for the first three passages. The two PDC lines 997537-175-T-J1-PDC and 415267-285-R-J2-PDC were cultured on uncoated flasks. The 857933-349-R-J2-PDC line was cultured in 6C/Colon 1B media containing advanced DMEM/F-12 (Thermo Fisher Scientific, cat. 12634028), 10 mM HEPES (Thermo Fisher Scientific, cat. 15630080), 1X GlutaMAX supplement (Thermo Fisher Scientific, cat. 35050061), 0.1 mg/mL primocin (InvivoGen, San Diego, CA, cat. ant-pm-2), 10% defined fetal bovine serum, heat inactivated (HyClone Laboratories Inc., Logan, UT, cat. SH30070.03HI), 50% L-WRN conditioned media (ATCC, cat. CRL-3276), 1.25 mM N-Acetyl-L-cysteine (Sigma-Aldrich, cat. A9165), 10 mM nicotinamide (Sigma-Aldrich, cat. N0636), 1X B-27 supplement (Thermo Fisher Scientific, cat. 17504044), 1X N-2 supplement (Thermo Fisher Scientific, cat. […]

[1] = second compound 0.0316 µM, first compound 0.000316 µM
[2] = second compound 0.0316 µM, first compound 0.001 µM
[3] = second compound 0.0316 µM, first compound 0.00316 µM
[4] = second compound 0.0316 µM, first compound 0.01 µM
[5] = second compound 0.0316 µM, first compound 0.0316 µM
[6] = second compound 0.0316 µM, first compound 0.1 µM
[7] = second compound 0.1 µM, first compound 0.000316 µM
[8] = second compound 0.1 µM, first compound 0.001 µM
[9] = second compound 0.1 µM, first compound 0.00316 µM
[10] = second compound 0.1 µM, first compound 0.01 µM
[11] = second compound 0.1 µM, first compound 0.0316 µM
[12] = second compound 0.1 µM, first compound 0.1 µM
[13] = second compound 0.316 µM, first compound 0.000316 µM
[14] = second compound 0.316 µM, first compound 0.001 µM
[15] = second compound 0.316 µM, first compound 0.00316 µM
[16] = second compound 0.316 µM, first compound 0.01 µM
[17] = second compound 0.316 µM, first compound 0.0316 µM
[18] = second compound 0.316 µM, first compound 0.1 µM
[19] = second compound 1 µM, first compound 0.000316 µM
[20] = second compound 1 µM, first compound 0.001 µM
[21] = second compound 1 µM, first compound 0.00316 µM
[22] = second compound 1 µM, first compound 0.01 µM
[23] = second compound 1 µM, first compound 0.0316 µM
[24] = second compound 1 µM, first compound 0.1 µM
[25] = second compound 3.16 µM, first compound 0.000316 µM
[26] = second compound 3.16 µM, first compound 0.001 µM
[27] = second compound 3.16 µM, first compound 0.00316 µM
[28] = second compound 3.16 µM, first compound 0.01 µM
[29] = second compound 3.16 µM, first compound 0.0316 µM
[30] = second compound 3.16 µM, first compound 0.1 µM
[31] = second compound 10 µM, first compound 0.000316 µM
[32] = second compound 10 µM, first compound 0.001 µM
[33] = second compound 10 µM, first compound 0.00316 µM
[34] = second compound 10 µM, first compound 0.01 µM
[35] = second compound 10 µM, first compound 0.0316 µM
[36] = second compound 10 µM, first compound 0.1 µM
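Further: spheroids exposed to compounds for 7 days before readout.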
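Wherever viability, T/C is given: 100% = DMSO vehicle control viability.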

Cn1ncnc1[C@H]1c2n[nH]c(=O)c3cc(F)cc(c23)N[C@@H]1c1ccc(F)cc1 + COC1C(OC(N)=O)C(O)C(Oc2ccc3c(O)c(NC(=O)c4ccc(O)c(CC=C(C)C)c4)c(=O)oc3c2C)OC1(C)C
IC50 (second compound 0.0316 µM): > 100 nM | IC50 (second compound 0.1 µM): > 100 nM | IC50 (second compound 0.316 µM): > 100 nM | IC50 (second compound 1 µM): > 100 nM | IC50 (second compound 3.16 µM): > 100 nM | IC50 (second compound 10 µM): > 100 nM | viability, T/C [1]: 122% | viability, T/C [2]: 107% | viability, T/C [3]: 104% | viability, T/C [4]: 85.5% | viability, T/C [5]: 79.3% | viability, T/C [6]: 107% | viability, T/C [7]: 99.8% | viability, T/C [8]: 117% | viability, T/C [9]: 97.7% | viability, T/C [10]: 83.8% | viability, T/C [11]: 105% | viability, T/C [12]: 102% | viability, T/C [13]: 95% | viability, T/C [14]: 122% | viability, T/C [15]: 75.4% | viability, T/C [16]: 108% | viability, T/C [17]: 109% | viability, T/C [18]: 110% | viability, T/C [19]: 98.1% | viability, T/C [20]: 117% | viability, T/C [21]: 94.2% | viability, T/C [22]: 106% | viability, T/C [23]: 71.5% | viability, T/C [24]: 109% | viability, T/C [25]: 95.9% | viability, T/C [26]: 109% | viability, T/C [27]: 92.1% | viability, T/C [28]: 102% | viability, T/C [29]: 109% | viability, T/C [30]: 110% | viability, T/C [31]: 95.7% | viability, T/C [32]: 110% | viability, T/C [33]: 121% | viability, T/C [34]: 98% | viability, T/C [35]: 113% | viability, T/C [36]: 95.8%

Cn1ncnc1[C@H]1c2n[nH]c(=O)c3cc(F)cc(c23)N[C@@H]1c1ccc(F)cc1 + Nc1ccc(C#CCN(C(=O)Cc2ncc(C(F)(F)F)cc2C(F)(F)F)c2ccc(F)cc2)nn1
IC50 (second compound 0.0316 µM): > 100 nM | IC50 (second compound 0.1 µM): > 100 nM | IC50 (second compound 0.316 µM): > 100 nM | IC50 (second compound 1 µM): > 100 nM | IC50 (second compound 3.16 µM): > 100 nM | IC50 (second compound 10 µM): > 100 nM | viability, T/C [1]: 106% | viability, T/C [2]: 97.1% | viability, T/C [3]: 99.6% | viability, T/C [4]: 98.8% | viability, T/C [5]: 106% | viability, T/C [6]: 94% | viability, T/C [7]: 99.1% | viability, T/C [8]: 102% | viability, T/C [9]: 95.2% | viability, T/C [10]: 107% | viability, T/C [11]: 106% | viability, T/C [12]: 110% | viability, T/C [13]: 93.7% | viability, T/C [14]: 95.1% | viability, T/C [15]: 94.2% | viability, T/C [16]: 105% | viability, T/C [17]: 109% | viability, T/C [18]: 82.9% | viability, T/C [19]: 96.8% | viability, T/C [20]: 103% | viability, T/C [21]: 112% | viability, T/C [22]: 109% | viability, T/C [23]: 104% | viability, T/C [24]: 94.5% | viability, T/C [25]: 101% | viability, T/C [26]: 92% | viability, T/C [27]: 98.3% | viability, T/C [28]: 97.7% | viability, T/C [29]: 101% | viability, T/C [30]: 112% | viability, T/C [31]: 99.3% | viability, T/C [32]: 106% | viability, T/C [33]: 97.1% | viability, T/C [34]: 103% | viability, T/C [35]: 101% | viability, T/C [36]: 110%
